The compounds below were run on increase in uterus weight by stimulus with estradiol (assay: Anti-estrogenic activity via oral administration (inhibition of estradiol-stimulated increase in uterus weight in ovariectomized mice)). Conditions: ovariectomized ICR mice, 17β-estradiol-benzoate 0.1 μg/day s.c. for 3 days, test compound 10 mg/kg p.o., once a day, uterus weighed 24 hours after last administration.
Format: in vivo
Protocol: Oral anti-estrogenic activity in vivo of the test compound was determined according to the method described hereinafter. […] In this experiment, the test compounds and the control compound were suspended in 5% arabic gum solution and orally administered for 3 days, once a day. After 24 hours from the last administration, the test animal was sacrificed and uterus was removed and weighed.

SMILES | Inhibition (%) of the increase in uterus weight by estradiol [%]
C[C@]1(c2ccc(O)cc2)CSc2cc(O)ccc2[C@H]1CCCCCCCCC(CCCCCCC(F)(F)C(F)(F)F)C(=O)O (stereo partly drawn) [Example 1, (3′RS,4′RS)-10-[7-hydroxy-3-(4-hydroxyphenyl)-3-methylthiochroman-4-yl]-2-(7,7,8,8,8-pentafluorooctyl)decanoic acid] | 78.9
C[C@]1(c2ccc(O)cc2)CSc2cc(O)ccc2[C@H]1CCCCCCCCCC(CCCCCCC(F)(F)C(F)(F)F)C(=O)O (stereo partly drawn) [Example 2, (3′RS,4′RS)-11-[7-hydroxy-3-(4-hydroxyphenyl)-3-methylthiochroman-4-yl]-2-(7,7,8,8,8-pentafluorooctyl)undecanoic acid] | 62.0
C[C@]1(c2ccc(O)cc2)COc2cc(O)ccc2[C@H]1CCCCCCCCCC(CCCCCCC(F)(F)C(F)(F)F)C(=O)O (stereo partly drawn) [Example 3, (3′RS,4′RS)-11-[7-hydroxy-3-(4-hydroxyphenyl)-3-methylchroman-4-yl]-2-(7,7,8,8,8-pentafluorooctyl)undecanoic acid] | 85.1
C[C@]1(c2ccc(O)cc2)COc2cc(O)ccc2[C@H]1CCCCCCCCC(CCCCCCC(F)(F)C(F)(F)F)C(=O)O (stereo partly drawn) [Example 4, (3′RS,4′RS)-10-[7-hydroxy-3-(4-hydroxyphenyl)-3-methylchroman-4-yl]-2-(7,7,8,8,8-pentafluorooctyl)decanoic acid] | 71.4
C[C@]1(c2ccc(O)cc2)CCc2cc(O)ccc2C1CCCCCCCCC[S+]([O-])CCCC(F)(F)C(F)(F)F (some centres unmarked) [ZM189154, reference compound] | 41.7

From patent US6555571B2, “3-methyl -chromane or thiochromane derivatives” (Chugai Seiyaku Kabushiki Kaisha, priority 1999, dated 2003)
